According to US20110236874A1, “METHOD FOR FORMATION OF RENAL TUBULES” (priority 2008, published 2011):
Entries after “also recorded” stand apart in the source; their conditions may differ.

Tests used:
[1] = system: Human proximal tubules formed on 2D solid surfaces; assay: Transport assays with fluorescent substrates in tubules formed on 2D solid surfaces; format: cell-based; conditions: 20 h incubation, lucifer yellow 80 μM, rhodamine 123 10 μM, 5,6-carboxyfluorescein 5 μM, BODIPY FL verapamil 5 μM
Procedure: Transport assays: Tubules formed 1-2 weeks after seeding were cultivated in phenol red-free medium supplemented with 80 μM of lucifer yellow (Sigma Aldrich Chemical Corp, Singapore), 10 μM of rhodamine 123 (Invitrogen, Singapore), 5 μM of 5,6-carboxydichlorofluorescein diacetate (5,6-carboxyfluorescein) (Invitrogen) or 5 μM of BODIPY FL verapmil (Invitrogen). Tubules were fixed after 20 h of incubation, and subsequently stained with 4′,6′-diamidino-2′-phenylindole (DAPI).
FIG. 11: Organic anion transport. Human proximal tubules formed on 2D solid surfaces were incubated for 20 h with the organic anions lucifer yellow (A, B; green), rhodamine 123 (C; red), 5,6-carboxyfluorescein (D; green) and BODIPY FL verapamil (F; green). Tubules are fixed before imaging, and the cell nuclei are counterstained with DAPI (blue). […] The arrowhead points to a region that is enlarged in the inset. The DAPI-stained nuclei of the outer cell layer are on the right in the inset. […] Scale bars: 100 μm.

[2] = system: primary human renal proximal tubule cells (HPTCs); assay: TGF-β1 treatment of confluent HPTC monolayers in complete HPTC medium; format: cell-based
Procedure: Cell culture: Different batches of HPTCs were obtained from ScienCell Research Laboratories (Carlsbad, Calif., USA). Cells were cultivated in basal epithelial cell medium supplemented with 2% fetal bovine serum (FBS) and 1% epithelial cell growth supplement (ScienCell Research Laboratories). In some experiments, TGF-β1 (R&D Systems, Minneapolis, Minn., USA) was added at a concentration of 10 ng/ml after monolayer formation.
FIG. 17: Growth factor expression and effects of TGF-β1. (A) The expression levels of TGF-β1, α-SMA, LIF, FGF2, KGF and HGF are monitored over a period of 4 weeks. […] Panels B-D show the cells treated for 3 days with 10 ng/ml TGF-β1 after monolayer formation. […] Scale bar: 500
A fourth experimental series was performed with our HPTC medium containing all supplements including FBS. HPTCs were grown to confluency and then treated with TGF-β1 (10 ng/ml; same concentration as used for the rabbit cells). After three days massive cords and aggregates of cells with an elongated, myofibroblastic morphology had formed in 6/6 wells. Although in the complete HPTC medium with FBS, cords and cell aggregates also form without the addition of extra TGF-β1, such structures formed more consistently after addition of TGF-β1. […]

[3] = system: primary human renal proximal tubule cells (HPTCs); assay: TGF-β1 treatment of confluent HPTC patches in Humes basal medium; format: cell-based; conditions: 10 ng/ml TGF-β1 on confluent patches in Humes basal medium
Procedure: The Humes et al. method used primary rabbit proximal tubule cells. The references indicate three factors are necessary in the growth medium for 2D tubulogenesis: (i) transforming growth factor (TGF)-β1; (ii) epidermal growth factor (EGF); and all-trans retinoic acid (RA). The method involves cultivation of primary rabbit renal proximal tubule cells in the following medium: Dulbecco's modified Eagle's:Ham's F-12 media (1:1, v/v) containing L-glutamine, penicillin, streptomycin, 50 nM hydrocortisone, 5 μg/ml of insulin, and 5 μg/ml of transferrin, referred to herein as Humes basal medium.
In a second set of experiments cells were again cultivated in Humes basal medium. In accordance with the previous results, massive cell death occurred although some cells survived and formed some confluent patches after 2 weeks. By this time cell growth was very slow and overall confluency could not be achieved. However, the confluent patches were treated with 10 ng/ml TGF-β1 in accordance with the Humes et al. method.

[4] = system: primary rabbit renal proximal tubule cells; conditions: added to confluent rabbit cell cultures for at least 72 hours; TGF-β1 10 ng/ml, EGF 1 nM, RA 0.1 μM; cited from earlier work

Compound | localisation of the fluorescent substrate after incubation (transport across tubular epithelium) [1] | structures formed from confluent monolayer [4] | also measured
5,6-carboxydichlorofluorescein diacetate [5,6-carboxyfluorescein] | enriched in the tubular interior; also recorded: became enriched in the tubular lumen | – | –
TGF-β1: transforming growth factor β1 (R&D Systems), 10 ng/ml | – | formation of solid aggregates of adherent cells (no lumen) | wells with massive cords and aggregates of cells of myofibroblastic morphology ([2]; 10 ng/ml TGF-β1, after three days, complete HPTC medium with FBS): 6/6; effect on the monolayer ([2]; 10 ng/ml TGF-β1 for 3 days after monolayer formation): induces rearrangements leading to the formation of condensed stripes of cells and areas devoid of cells; also recorded: rearrangement of the monolayer into a condensed stripe of cells and to the formation of cell aggregates; effect on the monolayer, cord and tubule formation [3]: no obvious effect on the monolayer and no cord and tubule formation was observed
rhodamine 123 | became enriched in the tubular lumen | – | localisation of the fluorescent substrate after incubation (transport across tubular epithelium) ([1]; listed as Rhodamine 123): enriched in the tubular lumen
EGF: epidermal growth factor (NSDSECPLSHDGYCLHDGVCMYIEALDKYACNCVVGYIGERCQYRDLKWWELR; UniProt P01133 971-1023, looked up) | – | no dramatic effects on the monolayer | –
BODIPY FL verapamil | enriched in the cytoplasm of tubular and monolayer cells | – | localisation of the fluorescent substrate after incubation (transport across tubular epithelium) ([1]; listed as BOPIPY FL verapamil): became enriched within the cells
CC1=C(/C=C/C(C)=C/C=C/C(C)=C/C(=O)O)C(C)(C)CCC1 [RA, all-trans retinoic acid] | – | no dramatic effects on the monolayer | –
lucifer yellow | the lumen is strongly labeled; also recorded: became enriched in the tubular lumen | – | –
